# “Also recorded” adds a separate entry of the source.
# Columns and labels:
# [1] = prescribed for morning sickness during pregnancy; cited from earlier work
# beta-adrenergic = conditions: L-form versus D-enantiomer; cited from earlier work
# [2] = Degradation of methylphenidate in presence of moisture or packaging materials (observation)
smiles,measurement,setting,value
"O=C1CCC(N2C(=O)c3ccccc3C2=O)C(=O)N1 (single isomer, unassigned) [D-enantiomer of thalidomide, thalidomide]",safety/effect of enantiomer in pregnancy,[1],safe and effective sedative
"O=C1CCC(N2C(=O)c3ccccc3C2=O)C(=O)N1 (single isomer, unassigned) [L-enantiomer of thalidomide, thalidomide]",safety/effect of enantiomer in pregnancy,[1],potent teratogen
"CC(C)NC[C@H](O)COc1cccc2ccccc12 [L-form of propranolol, propranolol]",potency relative to the D-enantiomer,beta-adrenergic,100 times
COC(=O)C(c1ccccc1)C1CCCCN1 (centres unmarked) [methylphenidate],stability in the presence of packaging materials,[2]; certain types of packaging materials used for transdermal systems,unstable
same,degradation in the presence of moisture,[2]; exposure to moisture,form ritalinic acid by hydrolysis; also recorded: formation of the erythro-enantiomers

# Source: patent publication US6905016B2, “Packaging system for transdermal drug delivery systems” (Noven Pharmaceuticals, Inc., priority 2000, dated 2005)
